# Source: PMC6344527, “Toxicity and possible mechanisms of action of honokiol from Magnolia denudata seeds against four mosquito species” (Scientific Reports, 2019)
# Where two headings read alike, the source gives them in different places.
# How the values were obtained:
# [1] = tested on: whole-body homogenate from third-instar Aedes aegypti larvae (adenylate cyclase activity); experiment: determination of cyclic AMP levels (octopamine-sensitive adenylate cyclase activity); assay type: biochemical; conditions: 100 μM; compared with control group / octopamine
# Procedure: The method of Perumalsamy et al.[42] was used to assess the in vitro octopamine-sensitive adenylate cyclase activity of the test compounds. In brief, whole bodies of 75 Ae. aegypti larvae (106.2 mg) were homogenized in 500 µL of 2 mM Tris-maleate buffer (pH 7.4) containing 0.8 mM ethylene glycol tetraacetic acid (EGTA). The adenylate cyclase activity was determined using the cAMP Biotrak Enzymeimmunoassay system according to the manufacturer’s protocol. The assay was conducted in a total volume of 100 µL containing 80 mM Tris-maleate buffer, 5 mM theophylline, 2 mM MgSO4, 0.5 mM adenosine triphosphate (ATP), 0.2 mM EGTA, 50 µL of whole-body homogenate (equivalent to 4.12 µg protein), and 1 µL of the test compounds in Tris-maleate buffer containing 0.2% ethanol. After incubation at 20 °C for 5 min, the reaction was initiated by addition of ATP. Incubation was performed at 30 °C for 3 min in a shaking water bath. The reaction was stopped by boiling for 2 min, and then, the assay tube was cooled and centrifuged at 8,000 × g for 10 min. Fifty microliters of the supernatant were assayed for cAMP levels.
# Polystyrene microplates (1 strip of 8 wells) coated with a goat anti-mouse polyclonal antibody were used. Fifty microliters of a mouse monoclonal antibody solution were added to each well except for the blank wells (or the nonspecific binding wells). The wells covered with the adhesive strip were incubated at 25 °C for 1 h in a shaking incubator (480 rpm). After washing with 400 µL of wash buffer four times, 50 μL of the two neolignan samples for cAMP determination and cAMP standard were added to wells. Control, blank (nonspecific binding), and zero standard wells were supplemented with 50 μL of a diluent RD5-55 buffer. […] The optical densities at 450 and 540 nm were determined using the microplate reader described above. The readings at 540 nm were subtracted from the readings at 450 nm. The cAMP concentrations are expressed as nmol/µg protein. The results are expressed as the means ± SEs of triplicate samples from three independent experiments.
# [2] = tested on: third-instar larvae of insecticide-susceptible Culex pipiens pallens; experiment: contact mortality bioassay, 24 h exposure; assay type: in vivo; conditions: for LC50: Culex pipiens, 24 h, read-out: LC50 (mg/L) (95% CI); for LC50 / LC90 (mg/L) (95% CI) / LC50 (mg/L) (95% CI): 24 h exposure
# Procedure: (§1) A contact mortality bioassay[25] was used to evaluate the toxicity of all compounds against third-instar larvae of the four mosquito species. Each test compound in methanol was suspended in DW with Triton X-100 (20 µL/L). Groups of 20 mosquito larvae were separately placed into paper cups (270 mL) containing each compound solution (250 mL). […] Negative controls consisted of a methanol–Triton X-100 solution in DW.
# (§2) Treated and control (methanol–Triton X-100 solution only) larvae were maintained under the same conditions as those used for colony maintenance without providing food. Larval mortalities were determined 24 h post-treatment. […] All treatments were performed three times using 20 larvae per replicate.
# (§3) The concentration of the test compounds required to produce 50% AChE inhibitory activity (IC50) was determined using the SAS 9.13 program (Cary: SAS Institute; 2014). Concentration-mortality data were subjected to probit analysis using the SAS 9.13 program. […] Statistical analyses were performed using the SAS 9.13 program. Multiple linear regression and correlation analysis were performed using the SPSS 24 program (Armonk: IBM Corp.; 2016).
# [3] = tested on: third-instar larvae of insecticide-susceptible Aedes aegypti; experiment: contact mortality bioassay, 24 h exposure; assay type: in vivo; conditions: for LC50: Aedes aegypti, 24 h, read-out: LC50 (mg/L) (95% CI); for LC50 / LC90 (mg/L) (95% CI) / LC50 (mg/L) (95% CI): 24 h exposure
# Procedure: as §1, §2, §3
# [4] = target: acetylcholinesterase (AChE) from third-instar Ae. aegypti larvae (Aedes aegypti, UniProt A4GND7); experiment: acetylcholinesterase inhibition assay; assay type: biochemical; conditions: based on IC50 values
# Chain of acetylcholinesterase (AChE) from third-instar Ae. aegypti larvae (A4GND7 37-679): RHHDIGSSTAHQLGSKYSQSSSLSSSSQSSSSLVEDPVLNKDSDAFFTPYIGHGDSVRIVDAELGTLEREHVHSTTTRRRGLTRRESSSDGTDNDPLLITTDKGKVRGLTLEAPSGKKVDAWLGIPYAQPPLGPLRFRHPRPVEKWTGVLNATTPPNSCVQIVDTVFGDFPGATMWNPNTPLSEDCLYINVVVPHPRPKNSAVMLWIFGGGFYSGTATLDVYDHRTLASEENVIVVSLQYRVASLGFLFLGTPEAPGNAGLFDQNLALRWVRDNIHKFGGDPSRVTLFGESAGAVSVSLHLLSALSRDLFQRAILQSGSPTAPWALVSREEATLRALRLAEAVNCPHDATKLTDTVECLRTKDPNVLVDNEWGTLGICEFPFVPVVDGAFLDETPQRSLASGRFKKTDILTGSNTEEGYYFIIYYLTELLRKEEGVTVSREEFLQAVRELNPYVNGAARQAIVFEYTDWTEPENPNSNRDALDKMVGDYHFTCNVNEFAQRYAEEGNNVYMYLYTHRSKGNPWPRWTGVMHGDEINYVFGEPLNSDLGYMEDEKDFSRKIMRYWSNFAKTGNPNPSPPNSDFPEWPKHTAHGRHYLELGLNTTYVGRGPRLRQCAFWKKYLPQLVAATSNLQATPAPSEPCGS
# Procedure: The in vitro AChE inhibitory activity of the test compounds was assessed according to the method of Perumalsamy et al.[42]. Third-instar Ae. aegypti larvae were used in all experiments. Whole bodies of 50 larvae were homogenized in 1 mL of ice-cold 0.1 M phosphate buffer (pH 8.0) using a glass tissue homogenizer. After filtering through cheesecloth, the homogenate was centrifuged at 1,000 × g at 4 °C for 5 min. The supernatant was used directly as the enzyme source for AChE. The protein levels were determined using the Bradford Protein Assay Kit (Bio-Rad Laboratories, Hercules, CA, USA) using BSA as the standard. The reaction mixture consisted of 50 µL of the crude enzyme preparation (4.3–4.8 µg protein equivalents), 150 µL of 0.1 M phosphate buffer, 20 µL of 3 mM DTNB in phosphate buffer (pH 7.0), and 1 µL of various concentrations of each test compound in ethanol. The reaction mixture was incubated at 30 °C for 5 min, and 20 µL of 32 mM ATChI was then added to the mixture. After incubation for 30 min, the reaction was terminated by adding 20 µL of 5 mM eserine salicylate. Absorbance was recorded at 412 nm using a VersaMax microplate reader (Molecular Devices, Sunnyvale, CA, USA). […] The results are expressed as the means ± standard errors (SEs) of triplicate samples from three independent experiments.
# as §3
# [5] = tested on: larvae of four mosquito species (Cx. pipiens pallens, Ae. aegypti, Ae. albopictus, and An. sinensis); experiment: contact mortality bioassay, range over four mosquito species; assay type: in vivo; conditions: 24 h
# Procedure: as §1, §2, §3
# [6] = tested on: third-instar larvae of insecticide-susceptible Aedes albopictus; experiment: contact mortality bioassay, 24 h exposure; assay type: in vivo; conditions: for LC50: Aedes albopictus, read-out: LC50 (mg/L) (95% CI); for LC50 / LC90 (mg/L) (95% CI) / Slope ± SE: Table 4, 24 h exposure; for Slope ± SE: probit slope
# Procedure: as §1, §2, §3
# [7] = tested on: third-instar larvae of insecticide-resistant Anopheles sinensis; experiment: contact mortality bioassay, 24 h exposure; assay type: in vivo; conditions: Table 5, larvae resistant to deltamethrin and temephos, 24 h exposure; for LC50: Anopheles sinensis, read-out: LC50 (mg/L) (95% CI); for Slope ± SE: probit slope
# Procedure: as §1, §2, §3
# [8] = tested on: mosquito species larvae; conditions: cited from earlier work
# [9] = Table 6, structure-activity series
# [10] = Table 7, structure-activity series
# [11] = Table 3, listed as Pure linoleic acid
# [12] = Table 2, KS-CP strain, listed as Pure palmitic acid
# [13] = Table 3, listed as Pure palmitic acid
smiles,measurement,setting,value
"NCC(O)c1ccc(O)cc1 (centres unmarked) [octopamine, reference compound]",cAMP levels,[1],did not differ significantly
"CCc1ccc(O)cc1 [p-Ethylphenol, p-ethylphenol]",LC50,[2]; [9],8.3 mg/L
same,LC90 (mg/L) (95% CI),[2]; [9],25.86 (20.36–38.21) mg/L
same,LC50,[3]; [10],9.03 mg/L
same,LC90 (mg/L) (95% CI),[3]; [10],30.57 (23.29–48.51) mg/L
same,AChE inhibitory activity (in words),[4],relatively weak AChE inhibitors
"CCCCC/C=C\C/C=C\CCCCCCCC(=O)O [Linoleic acid, (9Z,12Z)-9,12-octadecadienoic acid]",LC50,[5],6.97 to 7.5 µg/mL
same,LC50,[6],7.28 mg/L
same,LC90 (mg/L) (95% CI),[6],27.81 (20.95–46.02) mg/L
same,times less toxic than temephos,[6]; from 24 h LC50 values,552 times
same,Slope ± SE,[6],4.4 ± 0.59
same,LC50,"[2]; Table 2, KS-CP strain",6.97 mg/L
same,LC90 (mg/L) (95% CI),"[2]; Table 2, KS-CP strain, listed as Natural linoleic acid",19.41 (15.94–26.34) mg/L
same,LC50 (mg/L) (95% CI),"[2]; Table 2, KS-CP strain, listed as Pure linoleic acid",8.36 (6.09–10.40) mg/L
same,times less toxic than temephos,[2]; from 24 h LC50 values,430 times
same,LC50,[7],7.5 mg/L
same,LC90 (mg/L) (95% CI),[7],16.04 (14.05–19.06) mg/L
same,Slope ± SE,[7],3.9 ± 0.56
same,LC50,[3]; Table 3,7.19 mg/L
same,LC90 (mg/L) (95% CI),"[3]; Table 3, listed as Natural linoleic acid",27.04 (20.52–43.96) mg/L
same,LC50 (mg/L) (95% CI),[3]; [11],7.34 (5.58–8.92) mg/L
same,LC90 (mg/L) (95% CI),[3]; [11],29.70 (23.19–43.79) mg/L
same,times less toxic than temephos,[3]; from 24 h LC50 values,575 times
"O=C(O)/C=C/c1ccc(O)c(O)c1 [Caffeic acid, caffeic acid]",LC50,[2]; [9],119 mg/L
same,LC90 (mg/L) (95% CI),[2]; [9],245.6 (208.1–323.3) mg/L
same,LC50,[3]; [10],124 mg/L
same,LC90 (mg/L) (95% CI),[3]; [10],235.9 (204.2–296.1) mg/L
"CCCCCCCCCCCCCCCC(=O)O [Palmitic acid, hexadecanoic acid]",LC50,[5],32.6 to 47.6 µg/mL
same,LC50,[8]; flavonoids and fatty acids,34.50 to 42.96 µg/mL
same,LC50,[6],36.9 mg/L
same,LC90 (mg/L) (95% CI),[6],135.1 (104.3–196.9) mg/L
same,Slope ± SE,[6],3.1 ± 0.38
same,LC50,"[2]; Table 2, KS-CP strain",32.6 mg/L
same,LC90 (mg/L) (95% CI),"[2]; Table 2, KS-CP strain, listed as Natural palmitic acid",112.3 (88.96–156.2) mg/L
same,LC50 (mg/L) (95% CI),[2]; [12],34.92 (29.48–40.76) mg/L
same,LC90 (mg/L) (95% CI),[2]; [12],119.3 (94.38–166.4) mg/L
same,LC50,[7],47.6 mg/L
same,LC90 (mg/L) (95% CI),[7],192.8 (148.1–282.2) mg/L
same,Slope ± SE,[7],2.1 ± 0.22
same,LC50,[3]; Table 3,33.5 mg/L
same,LC90 (mg/L) (95% CI),"[3]; Table 3, listed as Natural palmitic acid",129.3 (99.59–189.2) mg/L
same,LC50 (mg/L) (95% CI),[3]; [13],36.49 (29.30–44.83) mg/L
same,LC90 (mg/L) (95% CI),[3]; [13],204.1 (139.4–378.1) mg/L
"Oc1ccc(-c2ccc(O)cc2)cc1 [p,p′-Biphenol, p,p′-biphenol]",LC50,[2]; [9],7.52 mg/L
same,LC90 (mg/L) (95% CI),[2]; [9],23.97 (18.97–35.16) mg/L
same,LC50,[3]; [10],8.34 mg/L
same,LC90 (mg/L) (95% CI),[3]; [10],27.76 (21.50–42.52) mg/L
same,AChE inhibitory activity (in words),[4],relatively weak AChE inhibitors
CC(C)=C1C[C@H]2C(=C(C)CC1=O)CC[C@]2(C)O [neoprocurcumenol],LC50,[8]; terpenoids,13.69 µg/mL
C=CC[C@@]12C=C(OC)C(=O)C=C1O[C@H](c1ccc3c(c1)OCO3)[C@H]2C [burchellin],LC50,[8]; neolignans,15.5 µg/mL
CC(C)=C1C[C@H]2C(=C(C)C(=O)C1=O)CC[C@]2(C)O [9-oxoneoprocurcumenol],LC50,[8]; terpenoids,5.81 µg/mL
"C=CCc1cc(OC)c(O)c(OC)c1 [Methoxyeugenol, methoxyeugenol]",LC50,[2]; [9],8.4 mg/L
same,LC90 (mg/L) (95% CI),[2]; [9],25.52 (20.27–36.92) mg/L
same,LC50,[3]; [10],9.15 mg/L
same,LC90 (mg/L) (95% CI),[3]; [10],29.46 (22.83–44.88) mg/L
same,AChE inhibitory activity (in words),[4],lowest of all of the compounds that were examined
